Literature values, collected in patent publication US10376520B2, “Methods for the treatment of cardiovascular disorders” (Galapagos NV, priority 2015, dated 2019).
Read-outs that look alike come from different tables or passages of the source.

Key:
[1] = test system: RA patient; conditions: 10 mg bid for 6 weeks in RA patient; cited from earlier work
[2] = test system: patients; conditions: first 3 months of exposure in the controlled clinical trials, cited from earlier work

C[C@@H]1CCN(C(=O)CC#N)C[C@@H]1N(C)c1ncnc2[nH]ccc12 [Tofacitinib]
atherogenic index before and after treatment (unchanged) [1]: about 3.5 | mean [HDL] increased by ([2]; 5 mg twice daily arm): 10% | mean [LDL] increased by ([2]; 5 mg twice daily arm): 15% | mean [HDL] increased by ([2]; 10 mg twice daily arm): 12% | mean [LDL] increased by ([2]; 10 mg twice daily arm): 19% | mean [LDL]/[HDL] ratios [2]: essentially unchanged
